Assay type in all cases: biochemical
Test [1] deals with T1, Escherichia coli malate dehydrogenase Ec-Mdh variant R81A, SEQ ID No. 102 (Escherichia coli, UniProt P61889, R81A).
T1 sequence (P61889 with tags, fused parts or gaps R81A): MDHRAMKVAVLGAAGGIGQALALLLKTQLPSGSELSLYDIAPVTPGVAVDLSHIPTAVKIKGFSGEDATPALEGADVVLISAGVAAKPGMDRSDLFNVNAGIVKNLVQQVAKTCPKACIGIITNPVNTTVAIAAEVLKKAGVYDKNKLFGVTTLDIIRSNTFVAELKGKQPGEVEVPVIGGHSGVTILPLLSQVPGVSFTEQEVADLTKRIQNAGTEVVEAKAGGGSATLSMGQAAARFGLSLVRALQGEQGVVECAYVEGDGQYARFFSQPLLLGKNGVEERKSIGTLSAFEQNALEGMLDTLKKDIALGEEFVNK
Description: OHB/oxaloacetate reductase assay, Ec-Mdh R81A. As to conditions: pH 7, 37° C. The procedure:
(§1) Enzymatic assays: The reaction mixture contained 60 mM Hepes (pH 7), 50 mM potassium chloride, 5 mM MgCl2, 0.25 mM NADH, (optionally 5 mM fructose-1,6-bisphosphate) (all products from Sigma), and appropriate amounts of purified malate or lactate dehydrogenase or cell extract. Reactions were started by adding appropriate amounts of 2-oxo-4-hydroxybutyrate (OHB), pyruvate, or oxaloacetate (OAA). Enzymatic assays were carried out at 37° C. in 96-well flat bottomed microtiter plates in a final volume of 250 μL. The reactions were followed by the characteristic absorption of NADH at 340 nm (εNADH=6.22 mM^−1 cm^−1) in a microplate reader (BioRad 680XR).
(§2) Site-directed mutagenesis of the mdh gene from E. coli was carried out as described in Example 2 using the primers listed in Table 5. Plasmid pET28-Ec-mdh was used as the template.
(§3) Mutant enzymes were expressed, purified and tested for OHB and oxaloacetate reductase activity as described in Example 1. […] The mutation R81A in Ec-Mdh was combined with additional changes in the protein sequence.

In test [2] the target is T2, Escherichia coli malate dehydrogenase Ec-Mdh variant R81A M85E I12V, SEQ ID No. 110 (Escherichia coli, UniProt P61889, I12V/M85E/R81A).
T2 sequence (P61889 1-312 I12V/R81A/M85E): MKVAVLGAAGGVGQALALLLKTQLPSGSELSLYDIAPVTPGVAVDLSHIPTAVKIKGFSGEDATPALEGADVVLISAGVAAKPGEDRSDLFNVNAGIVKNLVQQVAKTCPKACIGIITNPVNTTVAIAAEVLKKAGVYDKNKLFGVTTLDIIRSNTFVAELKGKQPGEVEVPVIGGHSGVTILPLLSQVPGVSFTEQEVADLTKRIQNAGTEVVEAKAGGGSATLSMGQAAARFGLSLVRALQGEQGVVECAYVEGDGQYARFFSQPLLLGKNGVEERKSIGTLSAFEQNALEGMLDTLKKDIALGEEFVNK
Description: OHB/oxaloacetate reductase assay, Ec-Mdh R81A M85E I12V. To be noted: pH 7, 37° C. Here is the method: as §1, §2, §3

In test [3] the target is T3, Escherichia coli malate dehydrogenase Ec-Mdh variant R81A M85Q, SEQ ID No. 104 (Escherichia coli, UniProt P61889, M85Q/R81A).
T3 sequence (P61889 1-312 R81A/M85Q): T2 sequence (P61889 1-312 I12V/R81A/M85E) with V12I, E85Q
The test can be described thus: OHB/oxaloacetate reductase assay, Ec-Mdh R81A M85Q. As to conditions: pH 7, 37° C. The procedure: as §1, §2, §3

Test [4] concerns the target T4, Escherichia coli malate dehydrogenase Ec-Mdh variant R81A 112V, SEQ ID No. 115 (Escherichia coli, UniProt P61889, I12V/R81A).
T4 sequence (P61889 1-312 I12V/R81A): T2 sequence (P61889 1-312 I12V/R81A/M85E) with E85M
The test can be described thus: OHB/oxaloacetate reductase assay, Ec-Mdh R81A 112V. As to conditions: pH 7, 37° C. Here is the method:
as §1, §2, §3

Test [5] concerns the target T5, Escherichia coli malate dehydrogenase Ec-Mdh variant R81A M85E, SEQ ID No. 106 (Escherichia coli, UniProt P61889, M85E/R81A).
T5 sequence (P61889 1-312 R81A/M85E): T2 sequence (P61889 1-312 I12V/R81A/M85E) with V12I
The test can be described thus: OHB/oxaloacetate reductase assay, Ec-Mdh R81A M85E. As to conditions: pH 7, 37° C. Here is the method:
as §1, §2, §3

The target of test [6] is T6, Escherichia coli (L)-malate dehydrogenase Ec-Mdh, wild type, SEQ ID NO: 2 (Escherichia coli, UniProt P61889).
T6 construct: made in house; host or cells: E. coli BL21 (DE3) star
T6 sequence (P61889 1-312): T2 sequence (P61889 1-312 I12V/R81A/M85E) with V12I, A81R, E85M
The test can be described thus: OHB/oxaloacetate reductase assay (NADH oxidation at 340 nm), Ec-Mdh wild type. To be noted: Table 6; up to 50 mM OHB; pH 7, 37° C., 0.25 mM NADH. An excerpt: The genes coding for (L)-malate dehydrogenase in Escherichia coli, Ec-mdh (SEQ ID NO: 1), (D)-lactate dehydrogenase in E. coli, Ec-ldhA (SEQ ID NO: 3), (L)-lactate dehydrogenase of Lactococcus lactis, Ll-ldhA (SEQ ID NO: 5), (L)-lactate dehydrogenase of Bacillus subtilis, Bs-ldh (SEQ ID NO: 7), (L)-lactate dehydrogenase of Geobacillus stearothermophilus, Gs-ldh (SEQ ID NO: 9), the two isoforms of the (L)-lactate dehydrogenase of Oryctalagus cuniculus, Oc-ldhA (SEQ ID NO: 11 and SEQ ID NO: 13), were amplified by PCR using the high-fidelity polymerase Phusion™ (Fermentas) and the primers listed in Table 1. Genomic DNAs of E. coli MG1655, L. lactis IL1403, and B. subtilis strain 168 were used as the template. The genes Oc-ldhA, and Gs-ldh were codon-optimized for expression in E. coli and synthesized by MWG Eurofins. The primers introduced restriction sites (Table 1) upstream of the start codon and downstream of the stop codon, respectively, facilitating the ligation of the digested PCR products into the corresponding sites of the pET28a+ (Novagen) expression vector using T4 DNA ligase (Fermentas). Ligation products were transformed into E. coli DH5a cells (NEB). […]

In test [7] the target is T7, Escherichia coli malate dehydrogenase Ec-Mdh variant R81A D86S, SEQ ID No. 1114 (Escherichia coli, UniProt P61889, D86S/R81A).
T7 sequence (P61889 1-312 R81A/D86S): T2 sequence (P61889 1-312 I12V/R81A/M85E) with V12I, E85M, D86S
The test can be described thus: OHB/oxaloacetate reductase assay, Ec-Mdh R81A D86S. As to conditions: pH 7, 37° C. The procedure:
as §1, §2, §3

Test [8] concerns the target T8, Escherichia coli malate dehydrogenase Ec-Mdh variant R81A G179D, SEQ ID No. 112 (Escherichia coli, UniProt P61889, G179D/R81A).
T8 sequence (P61889 1-312 R81A/G179D): T2 sequence (P61889 1-312 I12V/R81A/M85E) with V12I, E85M, G179D
Description: OHB/oxaloacetate reductase assay, Ec-Mdh R81A G179D. To be noted: pH 7, 37° C. The procedure: as §1, §2, §3

Test [9] addresses T9, Escherichia coli malate dehydrogenase Ec-Mdh variant R81A M85Q I12V, SEQ ID No. 108 (Escherichia coli, UniProt P61889, I12V/M85Q/R81A).
T9 sequence (P61889 1-312 I12V/R81A/M85Q): T2 sequence (P61889 1-312 I12V/R81A/M85E) with E85Q
Description: OHB/oxaloacetate reductase assay, Ec-Mdh R81A M85Q I12V. To be noted: up to 0.5 mM oxaloacetate; pH 7, 37° C.; read-out: Km (OAA). Here is the method:
as §1, §2, §3

Where [10] appears, read: up to 50 mM OHB, read-out: Km (OHB).
The mark [11] stands for this setting: up to 0.5 mM oxaloacetate, read-out: Km (OAA).

The text below walks through data of patent US11505811B2, “Method for the preparation of 2,4-dihydroxybutyrate” (ADISSEO FRANCE S.A.S., priority 2012, dated 2022).

Positions count from the first letter of the chain named. Like-named read-outs stand apart in the source and are kept apart here. Where only a bound is given, the exact number is not on record here.

The term Km denotes the concentration of substrate that gives half-maximal velocity. Regarding `O=C(O)C(=O)CCO` [OHB, 2-oxo-4-hydroxybutyrate], the Km in test [1] (setting [10]), in test [2] (setting [10]), in [3] (setting [10]), in test [4] (setting [10]), in [5] (setting [10]) and in test [6] was greater than 50 mM each time. In addition, the Km in test [7] (setting [10]) and in [8] (setting [10]) was greater than 50 mM in each case.
For the molecule `O=C(O)CC(=O)C(=O)O` [oxaloacetate, reference compound], the Km in test [1] (setting [11]), in test [2] (setting [11]), in test [9], in test [3] (setting [11]), in [4] (setting [11]) and in [5] (setting [11]) was greater than 0.5 mM each time. The Km in [7] (setting [11]) and in [8] (setting [11]) was greater than 0.5 mM each time.
